Experimental data as given in ChEMBL document CHEMBL3352214, “Studies on indolizines. Evaluation of their biological properties as microtubule-interacting agents and as melanoma targeting compounds” (Eur J Med Chem, 2015).
pIC50: −log10 of the molar value.

What was measured:
[1] = Inhibition of sheep brain tubulin polymerization by fluorescence assay; parameters: species or system Ovis aries
[2] = species on record: Ovis aries; test: Inhibition of sheep brain tubulin polymerization at 100 uM by fluorescence assay
[3] = tested on: T47D; test: Growth inhibition of human T47D cells at 10^-5 M after 48 hrs by SRB assay; type: functional; conditions: Homo sapiens, T47D, 48 h; read-out: GI
[4] = tested on: NCI-H522; test: Growth inhibition of human NCI-H522 cells at 10^-5 M after 48 hrs by SRB assay; type: functional; conditions: NCI-H522, 48 h, read-out: GI
[5] = tested on: HL-60(TB); test: Growth inhibition of human HL-60(TB) cells at 10^-5 M after 48 hrs by SRB assay; type: functional; conditions: HL-60, 48 h, read-out: GI
[6] = tested on: A498; test: Growth inhibition of human A498 cells at 10^-5 M after 48 hrs by SRB assay; type: functional; conditions: A498, 48 h, read-out: GI
[7] = Growth inhibition of human HCT15 cells at 10^-5 M after 48 hrs by SRB assay; type: functional; conditions: HCT-15, 48 h, read-out: GI
[8] = Growth inhibition of human SF295 cells at 10^-5 M after 48 hrs by SRB assay; type: functional; conditions: SF-295, 48 h, read-out: GI
[9] = Growth inhibition of human HOP92 cells at 10^-5 M after 48 hrs by SRB assay; type: functional; conditions: HOP-92, 48 h, read-out: GI
[10] = tested on: Malme-3M; test: Growth inhibition of human MALME-3M cells at 10^-5 M after 48 hrs by SRB assay; type: functional; conditions: read-out: GI
[11] = tested on: SNB-75; test: Growth inhibition of human SNB75 cells at 10^-5 M after 48 hrs by SRB assay; type: functional; conditions: SNB-75, 48 h, read-out: GI
[12] = tested on: CAKI-1; test: Growth inhibition of human Caki1 cells at 10^-5 M after 48 hrs by SRB assay; type: functional; conditions: CAKI-1, 48 h, read-out: GI
[13] = tested on: MDA-MB-435; test: Growth inhibition of human MDA-MB-435 cells at 10^-5 M after 48 hrs by SRB assay; type: functional; conditions: MDA-MB-435, 48 h, read-out: GI
[14] = Growth inhibition of human MOLT4 cells at 10^-5 M after 48 hrs by SRB assay; type: functional; conditions: MOLT-4, 48 h, read-out: GI
[15] = Growth inhibition of human EKVX cells at 10^-5 M after 48 hrs by SRB assay; type: functional; conditions: read-out: GI
[16] = tested on: MCF7; test: Growth inhibition of human MCF7 cells at 10^-5 M after 48 hrs by SRB assay; type: functional; conditions: MCF7, 48 h, read-out: GI
[17] = Growth inhibition of human PC3 cells at 10^-5 M after 48 hrs by SRB assay; type: functional; conditions: PC-3, 48 h, read-out: GI
[18] = Growth inhibition of human HCT116 cells at 10^-5 M after 48 hrs by SRB assay; type: functional; conditions: HCT-116, 48 h, read-out: GI
[19] = tested on: SNB-75; test: Cytotoxicity against human SNB75 cells assessed as cell growth at 10^-5 M after 48 hrs by SRB assay; type: functional; conditions: SNB-75, 48 h, read-out: Activity
[20] = tested on: A498; test: Growth inhibition of human A498 cells after 48 hrs by SRB assay; type: functional; conditions: A498, 48 h
[21] = tested on: A498; test: Cytotoxicity against human A498 cells assessed as cell growth at 10^-5 M after 48 hrs by SRB assay; type: functional; conditions: A498, 48 h, read-out: Activity
[22] = tested on: K562; test: Growth inhibition of human K562 cells after 48 hrs by SRB assay; type: functional; conditions: K562, 48 h
[23] = Growth inhibition of human OVCAR3 cells after 48 hrs by SRB assay; type: functional; conditions: OVCAR-3, 48 h
[24] = tested on: NCI-H522; test: Cytotoxicity against human NCI-H522 cells assessed as cell growth at 10^-5 M after 48 hrs by SRB assay; type: functional; conditions: NCI-H522, 48 h, read-out: Activity
[25] = tested on: MCF7; test: Growth inhibition of human MCF7 cells after 48 hrs by SRB assay; type: functional; conditions: MCF7, 48 h
[26] = tested on: SK-MEL-5; test: Growth inhibition of human SK-MEL-5 cells after 48 hrs by SRB assay; type: functional; conditions: SK-MEL-5, 48 h
[27] = tested on: NCI/ADR-RES; test: Growth inhibition of human NCI/ADR-RES cells after 48 hrs by SRB assay; type: functional
[28] = tested on: SNB-75; test: Growth inhibition of human SNB75 cells after 48 hrs by SRB assay; type: functional; conditions: SNB-75, 48 h
[29] = tested on: HL-60(TB); test: Cytotoxicity against human HL-60(TB) cells assessed as cell growth at 10^-5 M after 48 hrs by SRB assay; type: functional; conditions: HL-60, 48 h, read-out: Activity
[30] = tested on: MDA-MB-468; test: Growth inhibition of human MDA-MB-468 cells after 48 hrs by SRB assay; type: functional; conditions: MDA-MB-468, 48 h
[31] = Growth inhibition of human COLO205 cells after 48 hrs by SRB assay; type: functional; conditions: COLO 205, 48 h
[32] = tested on: KM12; test: Growth inhibition of human KM12 cells after 48 hrs by SRB assay; type: functional; conditions: KM12, 48 h
[33] = tested on: MDA-MB-435; test: Growth inhibition of human MDA-MB-435 cells after 48 hrs by SRB assay; type: functional; conditions: MDA-MB-435, 48 h
[34] = tested on: MDA-MB-435; test: Cytotoxicity against human MDA-MB-435 cells assessed as cell growth at 10^-5 M after 48 hrs by SRB assay; type: functional; conditions: MDA-MB-435, 48 h, read-out: Activity
[35] = tested on: HL-60(TB); test: Growth inhibition of human HL-60(TB) cells after 48 hrs by SRB assay; type: functional; conditions: HL-60, 48 h
[36] = Growth inhibition of human PC3 cells after 48 hrs by SRB assay; type: functional; conditions: PC-3, 48 h
[37] = tested on: HT-29; test: Growth inhibition of human HT-29 cells after 48 hrs by SRB assay; type: functional; conditions: HT-29, 48 h
[38] = tested on: SR; test: Growth inhibition of human SR cells after 48 hrs by SRB assay; type: functional
[39] = tested on: NCI-H522; test: Growth inhibition of human NCI-H522 cells after 48 hrs by SRB assay; type: functional; conditions: NCI-H522, 48 h

CCOC(=O)c1cc(C(=O)c2cc(OC)c(OC)c(OC)c2)n2cccc(C)c12
pIC50 [1]: 4.01
inhibition [2]: 55%

CCOC(=O)c1c(C(=O)OCC)c2cc(OC)ccn2c1C(=O)c1cc(OC)c(OC)c(OC)c1
pIC50 [1]: 4.04
inhibition [2]: 57%

CCOC(=O)c1cc(C(=O)c2cc(OC)c(OC)c(OC)c2Br)n2ccc(OC)cc12
inhibition of growth at 10 µM [3]: 36%
inhibition of growth at 10 µM [4]: 35%
inhibition of growth at 10 µM [5]: 57%
inhibition of growth at 10 µM [6]: 23%
inhibition of growth at 10 µM [7]: 39%
inhibition of growth at 10 µM [8]: 38%
pIC50 [1]: 3.98
inhibition of growth at 10 µM [9]: 39%
inhibition of growth at 10 µM [10]: 0%
inhibition of growth at 10 µM [11]: 0%
inhibition of growth at 10 µM [12]: 51%
inhibition of growth at 10 µM [13]: 10%
inhibition of growth at 10 µM [14]: 60%
inhibition of growth at 10 µM [15]: 52%
inhibition [2]: 54%
inhibition of growth at 10 µM [16]: 7%
inhibition of growth at 10 µM [17]: 60%
inhibition of growth at 10 µM [18]: 31%

CCOC(=O)c1cc(C(=O)c2cc(OC)c(OC)c(OC)c2)n2cc(C)ccc12
pIC50 [1]: 4.47
inhibition [2]: 73%

COc1ccc(C(=O)c2cc(C#N)c3c(C)cc(C)cn23)cc1
inhibition of growth at 10 µM [3]: 60%
inhibition of growth at 10 µM [4]: 58%
inhibition of growth at 10 µM [5]: 0%
inhibition of growth at 10 µM [6]: 53%
inhibition of growth at 10 µM [7]: 27%
inhibition of growth at 10 µM [8]: 30%
inhibition of growth at 10 µM [9]: 43%
inhibition of growth at 10 µM [10]: 35%
inhibition of growth at 10 µM [11]: 100%
inhibition of growth at 10 µM [12]: 28%
inhibition of growth at 10 µM [13]: 27%
growth at 10 µM [19]: -4%
inhibition of growth at 10 µM [14]: 1%
inhibition [2]: 27%
inhibition of growth at 10 µM [16]: 46%
inhibition of growth at 10 µM [17]: 38%
inhibition of growth at 10 µM [18]: 80%

CCOC(=O)c1cc(C(=O)c2cc(OC)c(OC)c(OC)c2)n2cccc(C#N)c12
inhibition of growth at 10 µM [3]: 60%
GI50 [20]: 201 nM
growth at 10 µM [21]: -13%
inhibition of growth at 10 µM [4]: 100%
inhibition of growth at 10 µM [5]: 100%
GI50 [22]: 222 nM
inhibition of growth at 10 µM [6]: 100%
inhibition of growth at 10 µM [7]: 66%
inhibition of growth at 10 µM [8]: 81%
pIC50 [1]: 4.92
inhibition of growth at 10 µM [9]: 89%
inhibition of growth at 10 µM [10]: 44%
inhibition of growth at 10 µM [11]: 82%
GI50 [23]: 180 nM
growth at 10 µM [24]: -10%
GI50 [25]: 252 nM
GI50 [26]: 94 nM
inhibition of growth at 10 µM [12]: 74%
inhibition of growth at 10 µM [13]: 100%
GI50 [27]: 158 nM
GI50 [28]: 164 nM
growth at 10 µM [29]: -14%
inhibition of growth at 10 µM [14]: 72%
GI50 [30]: 332 nM
GI50 [31]: 171 nM
GI50 [32]: 190 nM
inhibition of growth at 10 µM [15]: 50%
GI50 [33]: 30 nM
growth at 10 µM [34]: -29%
inhibition [2]: 69%
GI50 [35]: 220 nM
GI50 [36]: 230 nM
inhibition of growth at 10 µM [16]: 71%
GI50 [37]: 236 nM
inhibition of growth at 10 µM [17]: 68%
GI50 [38]: 63 nM
GI50 [39]: 142 nM
inhibition of growth at 10 µM [18]: 79%
